Legend:
enkephalinase A = biological target: T1, enkephalinase A (Rattus norvegicus, UniProt P07861); experiment: Enkephalinase A inhibition, radiometric 3H-Met5-ENK degradation assay with TLC separation; assay type: biochemical, Sprague-Dawley rats; conditions: rat brain membrane enzyme, 40 nM 3H-Met5-ENK, 90 min at 37° C.; N.A. = No activity at <10^5 nM
T1 construct: from tissue; host or cells: Sprague-Dawley rat brain minus cerebellum; membrane pellet solubilised in 1% Triton X-100, DEAE Sephacel fraction eluting at 120-200 ml
T1 sequence (P07861 1-750): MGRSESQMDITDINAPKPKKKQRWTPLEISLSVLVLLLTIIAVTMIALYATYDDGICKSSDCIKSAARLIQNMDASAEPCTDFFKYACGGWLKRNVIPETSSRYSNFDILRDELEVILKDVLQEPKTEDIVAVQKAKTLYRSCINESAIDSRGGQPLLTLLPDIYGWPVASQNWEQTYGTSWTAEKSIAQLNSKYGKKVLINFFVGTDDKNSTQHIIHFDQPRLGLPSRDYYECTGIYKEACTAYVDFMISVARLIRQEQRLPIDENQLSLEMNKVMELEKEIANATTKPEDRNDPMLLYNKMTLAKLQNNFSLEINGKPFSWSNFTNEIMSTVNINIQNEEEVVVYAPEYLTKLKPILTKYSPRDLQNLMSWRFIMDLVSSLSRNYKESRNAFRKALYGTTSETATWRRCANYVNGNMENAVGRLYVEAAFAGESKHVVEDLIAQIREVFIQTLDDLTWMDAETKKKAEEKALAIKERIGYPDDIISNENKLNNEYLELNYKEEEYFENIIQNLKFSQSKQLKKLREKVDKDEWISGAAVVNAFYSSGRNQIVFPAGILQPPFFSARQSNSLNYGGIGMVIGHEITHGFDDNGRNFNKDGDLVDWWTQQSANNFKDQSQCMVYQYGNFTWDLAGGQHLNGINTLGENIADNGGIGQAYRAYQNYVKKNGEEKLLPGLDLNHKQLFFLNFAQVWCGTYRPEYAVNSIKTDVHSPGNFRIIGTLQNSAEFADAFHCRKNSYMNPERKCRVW
Procedure: The following test procedure was utilized to assay the enkephalinase A inhibition of the compounds having structural formula I.
Enzyme activity was separated by taking the brain tissue (minus cerebellum) from Sprague-Dawley rats and homogenizing it in 30 volumes of 50 mM Tris buffer, pH 7.4, using a Brinkmann Polytron. The resulting homogenate is centrifuged at 50,000 xg for 15 min. The pellet, constituting the membrane bound enzyme material, is washed by resuspending it in Tris and re-centrifuging it 4 times.
Following washing, solubilization of the membrane pellet is achieved by incubating it for 45 min at 37° C. in the presence of 15 volumes (based on initial brain weight) of 50 mM Tris-1% Triton X-100 buffer, pH 7.4. […] Material is eluted from the column using a 1 liter linear NaCl gradient running from 0.0 to 0.4 M. Effluent is collected in 7 ml fractions, each of which is assayed for enkephalin degrading activity. Under these conditions Enk'ase A activity is found to elute between 120 and 200 ml. followed by AP activity (260 to 400 ml) and finally by Enk'ase B activity between 420 and 450 ml.
Enkephalin degrading activity is monitored using a radiometric assay. The substrate is ^3 H-Met^5 -ENK (50.1 Ci/mmol, New England Nuclear) diluted in 0.05 M Tris buffer, pH 7.4, such that the final reaction mixture concentration is 40 nM. Total reaction mixture volume including enzyme and substrate is 250 μl. Incubation is carried out for 90 min at 37° C. To stop the reaction, tubes are transferred to a boiling water bath for 15 min.
Assay products are separated from one another using thin layer chromatography. […] Total running time is approximately 17 hours. TLC tanks are gassed with nitrogen prior to starting the run. Following the run, markers are visualized with ninhydrin spray. These spots, along with remaining plate regions, are cut from the plate and the radioactivity corresponding to each monitored using liquid scintillation counting. IC50 's are determined using linear regression techniques.

Male CFl mice = experiment: Potentiation of the analgesic effects of (DAla2-Met5)-enkephalinamide (DAEAM), tail-flick test; assay type: in vivo; conditions: mouse tail-flick, DAEAM icv, latency 30 min later, dose at which half the test animals displayed analgesia
Excerpt: Male CFl mice (19-23 g) from Charles River Breeding Labs, Mass., are used (N=10/dose or dose combination). Tail-flick testing is done similar to that of Dewey and Harris, Methods in Narcotic Research, Eds., S. Ehrenpreis and A. Neidle, pp. 101-109, Marcel Dekker, Inc., New York, 1975 using a radiant heat noxious stimulus. Following determination of control latencies (typically 2-3 sec), the mice are first injected (sc or po) with either vehicle or drug and after an appropriate interval injected intracerebroventricularly (icv) with either vehicle (10 μl of saline) or DAEAM according to Haley and McCormick, Br., J. Pharmacol., 12,12 (1957). Tail-flick latencies are re-determined 30 min later, as this has previously been determined to be the time of peak analgesia for DAEAM, a cut-off of 10 sec is employed.

Structure (SMILES) | IC50 (enkephalinase A) [nM] | DAEAM Potentiation ED50 (route) (Male CFl mice; sc) [mg/k] | DAEAM Potentiation ED50 (route) (Male CFl mice; po)
O=C(O)CCNC(=O)[C@H](Cc1ccccc1)N[C@@H](Cc1ccc(-c2ccccc2)cc1)C(=O)O [AC, N-[N-[L-1-carboxy-2-(4-phenyl)phenylethyl]-L-phenylalanyl]-β-alanine] | 2.5 |  | 
CC(C)C[C@H](N[C@H](Cc1ccccc1)C(=O)O)C(=O)N[C@@H](Cc1ccccc1)C(=O)O [AG, N-[N-[(D-1-carboxy-2-phenylethyl)]-L-leucyl]-L-phenylalanine] | 12 |  | 
CC(C)(C)OC(=O)N[C@@H](CNC(=O)[C@H](Cc1ccccc1)N[C@@H](Cc1ccccc1)C(=O)O)C(=O)O [AL, N-[N-(L-1-carboxy-2-phenylethyl)-L-phenylalanyl]-S-2-[N[(1,1-dimethylethoxy)carbonyl]amino]-β-alanine] | 4.5 |  | 
O=C(O)CCNC(=O)[C@H](Cc1ccccc1)N[C@@H](Cc1ccccc1)C(=O)O [K, N-[N-[(L-1-carboxy-2-phenylethyl)]-L-phenylalanyl]-β-alanine] | 15 | 17 | 
CC(C)(C)C(=O)OCOC(=O)CCNC(=O)[C@H](Cc1ccccc1)N[C@@H](Cc1ccccc1)C(=O)OCc1ccccc1 [L] |  |  | 155 mg/k
CC(C)(C)C(=O)OCOC(=O)CCNC(=O)[C@H](Cc1ccccc1)N[C@@H](Cc1ccccc1)C(=O)OCOC(=O)C(C)(C)C [M] |  |  | 37 mg/k
O=C(CCNC(=O)[C@H](Cc1ccccc1)N[C@@H](Cc1ccccc1)C(=O)O)OCCOc1ccccc1 [P, N-[N-[(L-1-carboxy-2-phenylethyl)]-L-phenylalanyl]-β-alanine, 2-phenoxyethyl ester] | 230 |  | 30-60 mg/k

— US4610816A (Schering Corporation, priority 1981, dated 1986)
